In US20240383915A1, “OXAZEPINE COMPOUNDS AND USES THEREOF IN THE TREATMENT OF CANCER” (Genentech, Inc., priority 2021, published 2024):

Key:
PC-9 cells = assay: PC9 proliferation assay; assay type: cell-based, human; conditions: Homo sapiens, PC-9, PC9; read-out: PC9 Prolif IC50 (G12V)
KRas = KRas (Homo sapiens (Human), UniProt P01116); assay: KRas GDP HTRF (BODIPY-GDP exchange TR-FRET); assay type: biochemical
Summary of the method: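 Inhibition of SOS1-mediated exchange of BODIPY-GDP on KRAS G12D, started with 3 nM recombinant human SOS1 and 300 nM BODIPY-GDP and read after 60 min. TR-FRET excitation 337 nm, ratio 520/490 nm ×10,000. IC50 from 4-parameter Hill fit of normalized data.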

KRas(G12V) = KRas(G12V) (Homo sapiens (Human), UniProt P01116, G12V); assay: KRas(G12V) GDP HTRF (BODIPY-GDP exchange TR-FRET); assay type: biochemical
SW480 cells = assay: SW480 proliferation assay; assay type: cell-based; conditions: Homo sapiens, SW480, SW480; read-out: SW480 Prolif IC50 (G12V)

Chain of KRas(G12V) (P01116-2 other isoform, or with tags, fused parts or gaps G12V): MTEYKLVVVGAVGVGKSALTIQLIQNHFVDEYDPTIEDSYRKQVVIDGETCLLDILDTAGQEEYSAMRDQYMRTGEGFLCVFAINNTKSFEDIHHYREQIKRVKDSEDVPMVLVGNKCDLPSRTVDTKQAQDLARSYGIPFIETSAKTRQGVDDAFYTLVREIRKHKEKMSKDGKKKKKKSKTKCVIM
Chain of KRas (P01116-2 other isoform, or with tags, fused parts or gaps): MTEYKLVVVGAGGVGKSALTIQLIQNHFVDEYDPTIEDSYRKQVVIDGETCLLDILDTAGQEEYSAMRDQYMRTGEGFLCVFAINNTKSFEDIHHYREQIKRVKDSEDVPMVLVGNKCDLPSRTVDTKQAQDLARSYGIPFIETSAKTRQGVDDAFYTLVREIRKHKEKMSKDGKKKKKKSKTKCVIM

SMILES	IC50 (PC-9 cells)	IC50 (KRas)	IC50 (KRas(G12V))	IC50 (SW480 cells)
C=C1CN2CCC[C@@]2(COc2nc3c4c(c(Cl)c(-c5nc(N)cc(C)c5C(F)(F)F)c(F)c4n2)OCCN3C)C1 [Example 40]	2100 nM	4.6 nM	0.99 nM	1200 nM
Cc1cc(N)nc(-c2cc3nc(OC[C@@H]4C[C@@H](F)CN4C)nc4c3c(c2Cl)OCCN4Cc2cccnc2N)c1C(F)(F)F [Example 49, 6-(4-((2-aminopyridin-3-yl)methyl)-8-chloro-2-(((2S,4R)-4-fluoro-1-methylpyrrolidin-2-yl)methoxy)-5,6-dihydro-4H-[1,4]oxazepino[5,6,7-de]quinazolin-9-yl)-4-methyl-5-(trifluoromethyl)pyridin-2-amine]	3800 nM	3.8 nM	0.57 nM	1100 nM
Cc1cc(N)nc(-c2cc3ncnc4c3c(c2Cl)OCCN4CCn2ccccc2=O)c1C(F)(F)F [Example 51, 1-(2-(9-(6-amino-4-methyl-3-(trifluoromethyl)pyridin-2-yl)-8-chloro-5,6-dihydro-[1,4]oxazepino[5,6,7-de]quinazolin-4-yl)ethyl)pyridin-2(1H)-one]	20000 nM	12000 nM	9500 nM	20000 nM
Cc1cc(N)nc(-c2cc3nc(OC[C@@]45CCCN4C[C@H](F)C5)nc4c3c(c2Cl)OCCN4Cc2cccnc2N)c1C(F)(F)F [Example 60, 6-(4-((2-aminopyridin-3-yl)methyl)-8-chloro-2-(((2R,7aS)-2-fluorotetrahydro-1H-pyrrolizin-7a(5H)-yl)methoxy)-5,6-dihydro-4H-[1,4]oxazepino[5,6,7-de]quinazolin-9-yl)-4-methyl-5-(trifluoromethyl)pyridin-2-amine]	2700 nM	0.48 nM	0.42 nM	230 nM
Nc1ncccc1CN1CCOc2c(Cl)c(-c3cc(O)cc4ccccc34)cc3nc(OC[C@@]45CCCN4C[C@H](F)C5)nc1c23 [Example 61, 4-(4-((2-aminopyridin-3-yl)methyl)-8-chloro-2-(((2R,7aS)-2-fluorotetrahydro-1H-pyrrolizin-7a(5H)-yl)methoxy)-5,6-dihydro-4H-[1,4]oxazepino[5,6,7-de]quinazolin-9-yl)naphthalen-2-ol]	3100 nM	4.3 nM	0.86 nM	940 nM
Nc1ncccc1CN1CCOc2c(Cl)c(-c3cccc4ccccc34)cc3nc(OC[C@@]45CCCN4C[C@H](F)C5)nc1c23 [Example 62, 3-((8-chloro-2-(((2R,7aS)-2-fluorotetrahydro-1H-pyrrolizin-7a(5H)-yl)methoxy)-9-(naphthalen-1-yl)-5,6-dihydro-4H-[1,4]oxazepino[5,6,7-de]quinazolin-4-yl)methyl)pyridin-2-amine]	3400 nM	96 nM	12 nM	4900 nM
C=C1CN2CCC2(COc2nc3c4c(c(Cl)c(-c5nc(N)cc(C)c5C(F)(F)F)c(F)c4n2)OCCN3[C@H](C)c2cccnc2N)C1 (stereo partly drawn) [Example 118, (6R)-6-(4-((R)-1-(2-aminopyridin-3-yl)ethyl)-8-chloro-10-fluoro-2-((3-methylene-1-azabicyclo[3.2.0]heptan-5-yl)methoxy)-5,6-dihydro-4H-[1,4]oxazepino[5,6,7-de]quinazolin-9-yl)-4-methyl-5-(trifluoromethyl)pyridin-2-amine]	730 nM	0.19 nM	0.06 nM	33 nM

Results, then the compound that gave them:

IC50 (PC-9 cells)	IC50 (KRas)	IC50 (KRas(G12V))	IC50 (SW480 cells)	SMILES
16000 nM	330 nM	53 nM	9700 nM	Cc1cc(N)nc(-c2cc3ncnc4c3c(c2Cl)OCCN4Cc2cncnc2N)c1C(F)(F)F [Example 26, 5-((9-(6-amino-4-methyl-3-(trifluoromethyl)pyridin-2-yl)-8-chloro-5,6-dihydro-4H-[1,4]oxazepino[5,6,7-de]quinazolin-4-yl)methyl)pyrimidin-4-amine]
17000 nM	110 nM	8.2 nM	7800 nM	Cc1cc(N)nc(-c2cc3ncnc4c3c(c2Cl)OCCN4C(c2cccnc2N)C2CC2)c1C(F)(F)F (stereo not drawn) [Example 28, 6-(4-((2-aminopyridin-3-yl)(cyclopropyl)methyl)-8-chloro-5,6-dihydro-4H-[1,4]oxazepino[5,6,7-de]quinazolin-9-yl)-4-methyl-5-(trifluoromethyl)pyridin-2-amine]
1700 nM	0.63 nM	0.39 nM	780 nM	Cc1cc(N)nc(-c2cc3nc(OC[C@@]45CCCN4CC4(C5)OCCO4)nc4c3c(c2Cl)OCCN4Cc2cccnc2N)c1C(F)(F)F [Example 35, (S)-6-(4-((2-aminopyridin-3-yl)methyl)-8-chloro-2-((dihydro-1H,3H-spiro[pyrrolizine-2,2′-[1,3]dioxolan]-7a(5H)-yl)methoxy)-5,6-dihydro-4H-[1,4]oxazepino[5,6,7-de]quinazolin-9-yl)-4-methyl-5-(trifluoromethyl)pyridin-2-amine]
20000 nM	140 nM	24 nM	20000 nM	Cc1cc(N)cc(-c2cc3nc(OC[C@@]45CCCN4C[C@H](F)C5)nc4c3c(c2Cl)OCCN4C)c1C(F)(F)F [Example 39, 3-(8-chloro-2-(((2R,7aS)-2-fluorotetrahydro-1H-pyrrolizin-7a(5H)-yl)methoxy)-4-methyl-5,6-dihydro-4H-[1, 4]oxazepino[5,6,7-de]quinazolin-9-yl)-5-methyl-4-(trifluoromethyl)aniline]
4800 nM	17 nM	2.7 nM	4100 nM	C=C1CN2CCC[C@@]2(COc2nc3c4c(c(Cl)c(-c5nc(N)cc(C)c5C(F)(F)F)cc4n2)OCCN3C)C1 [Example 44, (S)-6-(8-chloro-4-methyl-2-((2-methylenetetrahydro-1H-pyrrolizin-7a(5H)-yl)methoxy)-5,6-dihydro-4H-[1,4]oxazepino[5,6,7-de]quinazolin-9-yl)-4-methyl-5-(trifluoromethyl)pyridin-2-amine]
5800 nM	270 nM	57 nM	7100 nM	C=C1CN2CCC[C@@]2(COc2nc3c4c(c(Cl)c(-c5cc(O)cc6ccccc56)cc4n2)OCCN3C)C1 [Example 59, (S)-4-(8-chloro-4-methyl-2-((2-methylenetetrahydro-1H-pyrrolizin-7a(5H)-yl)methoxy)-5,6-dihydro-4H-[1,4]oxazepino[5,6,7-de]quinazolin-9-yl)naphthalen-2-ol]
4000 nM	69 nM	8.7 nM	3300 nM	Nc1ncccc1CN1CCOc2c(Cl)c(-c3cccc4c3CCC4)cc3nc(OC[C@@]45CCCN4C[C@H](F)C5)nc1c23 [Example 63, 3-((8-chloro-9-(2,3-dihydro-1H-inden-4-yl)-2-(((2R,7aS)-2-fluorotetrahydro-1H-pyrrolizin-7a(5H)-yl)methoxy)-5,6-dihydro-4H-[1,4]oxazepino[5,6,7-de]quinazolin-4-yl)methyl)pyridin-2-amine]
5400 nM	2700 nM	290 nM	17000 nM	Nc1ncccc1CN1CCOc2c(Cl)c(-c3cccc(CO)c3)cc3nc(OC[C@@]45CCCN4C[C@H](F)C5)nc1c23 [Example 64, (3-(4-((2-aminopyridin-3-yl)methyl)-8-chloro-2-(((2R,7aS)-2-fluorotetrahydro-1H-pyrrolizin-7a(5H)-yl)methoxy)-5,6-dihydro-4H-[1,4]oxazepino[5,6,7-de]quinazolin-9-yl)phenyl)methanol]
